Experimental data published in patent publication US5385932A, “HMG-COA reductase inhibitor metabolites” (Merck & Co., Inc., priority 1992, dated 1995).
Values belong to the molecule of their own block, whether it stands above or below them.

Key:
[1] = biological target: T1, HMG--CoA reductase (Rattus norvegicus, UniProt P51639); assay: intrinsic HMG-CoA reductase inhibition, in vitro protocol after alkaline hydrolysis of the lactone ring; format: biochemical; settings: relative inhibitory potency from IC50 values; lactone ring opened by alkaline hydrolysis; lovastatin (hydroxy acid form) assigned 100
T1 construct: from tissue
T1 sequence (P51639 1-887): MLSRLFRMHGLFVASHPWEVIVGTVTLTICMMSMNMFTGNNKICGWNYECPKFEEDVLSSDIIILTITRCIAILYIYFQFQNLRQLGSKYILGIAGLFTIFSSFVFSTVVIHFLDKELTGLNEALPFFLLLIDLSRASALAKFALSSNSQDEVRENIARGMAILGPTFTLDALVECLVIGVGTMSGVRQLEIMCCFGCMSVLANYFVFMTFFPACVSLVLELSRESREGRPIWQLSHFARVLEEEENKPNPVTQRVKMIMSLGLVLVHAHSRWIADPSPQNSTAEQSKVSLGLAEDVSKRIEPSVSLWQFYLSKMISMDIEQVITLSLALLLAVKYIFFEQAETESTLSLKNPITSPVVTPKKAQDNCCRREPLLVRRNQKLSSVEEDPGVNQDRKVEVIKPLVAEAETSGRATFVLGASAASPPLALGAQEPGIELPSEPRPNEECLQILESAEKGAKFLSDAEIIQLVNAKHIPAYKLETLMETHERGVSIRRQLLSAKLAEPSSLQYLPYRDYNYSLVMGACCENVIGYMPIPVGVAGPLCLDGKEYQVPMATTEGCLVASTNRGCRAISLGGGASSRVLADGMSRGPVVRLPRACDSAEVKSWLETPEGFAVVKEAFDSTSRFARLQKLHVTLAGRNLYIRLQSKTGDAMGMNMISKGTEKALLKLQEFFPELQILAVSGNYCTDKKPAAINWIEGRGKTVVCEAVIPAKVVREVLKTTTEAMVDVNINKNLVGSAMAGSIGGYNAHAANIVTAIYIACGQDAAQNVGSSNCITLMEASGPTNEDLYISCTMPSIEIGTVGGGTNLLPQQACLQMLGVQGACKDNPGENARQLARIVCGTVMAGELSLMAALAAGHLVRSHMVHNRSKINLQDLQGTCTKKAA
Procedure: After alkaline hydrolysis of the lactone ring the intrinsic HMG--CoA reductase inhibition activity was measured in an vitro protocol based on a method published in Proc. Natl. Acad. Sci. U.S.A. 77, 3957-3961 (1980).
The IC50 value of the test compound was compared with that of its parent determined simultaneously. For estimation of relative inhibitory potencies, lovastatin (in the form of its hydroxy acid) was assigned a value of 100.

[2] = stability of the free dihydroxy acid on standing; format: physicochemical; settings: on standing at room temperature; acid form can be maintained by increasing the pH above 7.0
Procedure: The sodium salt of the compound II from Example 4 is dissolved in 2 ml of ethanol-water (1:1; v:v) and added to 10 ml of 1N hydrochloric acid from which the dihydroxy acid is extracted with ethyl acetate. The organic extract is washed once with water, dried (Na2 SO4), and evaporated in vacuo with a bath temperature not exceeding 30° C. […] The dihydroxy acid form can be maintained by increasing the pH above 7.0.

[3] = incubation of 14C-labelled compound with rat liver microsomes, HPLC analysis of the label; format: in vitro ADME; settings: rat liver microsomes with NADPH and MgCl2, pH 7.4, 37°
Procedure: Rat liver tissue (55.6 g) was homogenized in 0.05M Tris -1.15% KCl buffer at pH 7.5 (100 ml). The homogenates were centrifuged at 10,000 RPM for 20 '. The supernatants were filtered through glass wool and then centrifuged as 100,000 g for 90'. After the supernatant was discarded the pellet was suspended in 10 mM EDTA -1.15% KCl (100 ml) and recentrifuged at 100,000 g for 90 minutes. The supernatant was discarded and the pellet was resuspended in 0.25M sucrose (15 ml). Microsomes were stored at -80° under N2. Protein concentration (as determined by Biuret reaction) was 40 mg/ml of final suspension.
[^14 C] 6(R)-[2-[8(S)-(2,2-dimethylbutyryloxy)-2(S)-methyl-5(R)-hydroxy-6(S)-methyl-1,2,3,4, 4a(R),5,6,7,8,Sa(R)-decahydronaphthyl-1(S)]ethyl]-4(R)-hydroxy-3,4,5,6,-tetrahydro-2H-pyran-2-one (compound A)(40 μg) in 20 λ of DMSO was placed in a tube with rat liver microsomes (1 mg in 100 μl of broth) Mg Cl2 (30 μl of a 0.1M solution), NADPH (50 μl of a 0.01M solution) and phosphate buffer (100 λ of a.1M solution, pH 7.4).
Twenty five such tubes were incubated at 37° in a water bath, for 30 minutes. Acetone (1 ml) was added to each tube, followed by ethyl acetate (5 ml). The ethyl acetate was evaporated and the residue was reconstituted in methanol and fractionated by HPLC. […]

Compound: CCC(C)(C)C(=O)O[C@H]1C[C@](C)(O)C[C@@H]2CC[C@H](C)[C@H](CC[C@@H]3C[C@@H](O)CC(=O)O3)[C@H]21 [6(R)-[2-[8(S)-(2,2-dimethylbutyryloxy)-2(S),6(R)-dimethyl-6(R)-hydroxy-1,2,3,4,4a (R),5,6,7,8,8a (R)-decahydronaphthyl-1(S)]ethyl]-4(R)-hydroxy-3,4,5,6-tetrahydro-2H-pyran-2-one]
- Potency (Relative to Lovastatin = 100) [1]: 2

Compound: CCC(C)(C)C(=O)O[C@H]1C[C@](C)(O)[C@@H](O)[C@@H]2CC[C@H](C)[C@H](CC[C@@H]3C[C@@H](O)CC(=O)O3)[C@H]21 [6(R)-[2-[8(S)-(2,2-dimethylbutyryloxy)-2(S)-methyl-5(S),6(S)-dihydroxy-6(S)-methyl-1,2,3,4, 4a (R),5,6,7,8,8a (R)-decahydronaphthyl-1(S)]ethyl]-4(R)-hydroxy-3,4,5,6-tetrahydro-2H-pyran-2-one]
- Potency (Relative to Lovastatin = 100) [1]: 40

Compound: CCC(C)(C)C(=O)O[C@H]1C[C@](C)(O)[C@@H](O)[C@@H]2CC[C@H](C)[C@H](CC[C@@H](O)C[C@@H](O)CC(=O)O)[C@H]21 [Example 10]
- stability of dihydroxy acid form (reversion to lactone) [2]: slowly reverts to the corresponding parent lactone

Continued, values first:

- remaining at 0.5 h ([3]; 30 minutes, ethyl acetate extract, read-out: label representing unchanged starting material): 52%
Compound: CCC(C)(C)C(=O)O[C@H]1C[C@@H](C)[C@@H](O)[C@@H]2CC[C@H](C)[C@H](CC[C@@H]3C[C@@H](O)CC(=O)O3)[C@H]21 [compound A, 6(R)-[2-[8(S)-(2,2-dimethylbutyryloxy)-2(S)-methyl-5(R)-hydroxy-6(S)-methyl-1,2,3,4, 4a(R),5,6,7,8,Sa(R)-decahydronaphthyl-1(S)]ethyl]-4(R)-hydroxy-3,4,5,6,-tetrahydro-2H-pyran-2-one]

- remaining at 1 h ([3]; 60 minutes, methyl-t.butyl ether extract, read-out: label in the extract that was unchanged starting material): 66%
Compound: CCC(C)(C)C(=O)O[C@H]1C[C@@H](C)C[C@@H]2CC[C@H](C)[C@H](CC[C@@H]3C[C@@H](O)CC(=O)O3)[C@H]21 [compound B, 6(R)-[2-[8(S)-(2,2-dimethylbutyryloxy)-2(S),6(R)-dimethyl-1,2,3,4,4a(R),5,6,7,8, 8a(R)-decahydronaphthyl-1(S)]ethyl]-4(R)-hydroxy-3,4,5,6-tetrahydro-2H-pyran-2-one]
